Drawing on US20230322761A1, “DEGRADATION OF BRUTON'S TYROSINE KINASE (BTK) BY CONJUGATION OF BTK INHIBITORS WITH E3 LIGASE LIGAND AND METHODS OF USE” (BEIGENE, LTD., priority 2020, published 2023), this text covers DC50 and Dmax for 16 compounds.

The structures appear in SMILES notation. A value given as a limit tells only on which side of the number the result lay.

The target in the assay is T1, BTK (Homo sapiens, UniProt Q06187).
T1 construct: endogenous in cells; host or cells: TMD-8 cells
The experiment in a line: BTK degradation in TMD-8 cells, HTRF assay after 6 h treatment. Format: cell-based. The settings on record: for DC50: IC50 (DC50) of BTK degradation; for Dmax: TMD8, maximum percentage of inhibition (degradation). As for the experimental part:
TMD-8 cells are treated with compounds diluted in 0.2% DMSO, dilution is done according to the following protocol: (1) make 500× stock solution in DMSO from 1 mM by 6-fold dilution, total 8 doses were included; (2) make 2× solution in cell culture medium by transferring 0.5 μl 500× stock solution into 125 μl medium; (3) 15 μl of 2× solution is added to cells and incubate for 6 h.
After 6 h treatment, add 10 μl 4×lysis buffer to each well; seal the plate and incubate 30 min at room temperature on a plate shaker; Once the cells are lysed, 16 μL of cell lysate are transferred to a PE 384-well HTRF detection plate; 4 μL of pre-mixed HTRF antibodies are added to each well; Cover the plate with a plate sealer, spin 1000 rpm for 1 min, Incubate overnight at room temperature; Read on BMG PheraStar with HTRF protocol (337 nm-665 nm-620 nm).
The IC50 (DC50) value of a compound can be obtained by fitting the following equation
Y=Bottom+(TOP−Bottom)/(1+((IC50/X)^hillslope))
Wherein, X and Y are known values, and IC50, Hillslope, Top and Bottom are the parameters obtained by fitting with software. Y is the inhibition percentage (calculated from the equation), X is the concentration of the compound; IC50 is the concentration of the compound when the 50% inhibition is reached. The smaller the IC50 value is, the stronger the inhibitory ability of the compound is. Vice versa, the higher the IC50 value is, the weaker the ability the inhibitory ability of the compound is; Hillslope represents the slope of the fitted curve, generally around 1*; Bottom represents the minimum value of the curve obtained by data fitting, which is generally 0%±20%; Top represents the maximum value of the curve obtained by data fitting, which is generally 100%±20%. The experimental data were fitted by calculating and analyzing with Dotmatics data analysis software.

T1 sequence (Q06187 whole entry): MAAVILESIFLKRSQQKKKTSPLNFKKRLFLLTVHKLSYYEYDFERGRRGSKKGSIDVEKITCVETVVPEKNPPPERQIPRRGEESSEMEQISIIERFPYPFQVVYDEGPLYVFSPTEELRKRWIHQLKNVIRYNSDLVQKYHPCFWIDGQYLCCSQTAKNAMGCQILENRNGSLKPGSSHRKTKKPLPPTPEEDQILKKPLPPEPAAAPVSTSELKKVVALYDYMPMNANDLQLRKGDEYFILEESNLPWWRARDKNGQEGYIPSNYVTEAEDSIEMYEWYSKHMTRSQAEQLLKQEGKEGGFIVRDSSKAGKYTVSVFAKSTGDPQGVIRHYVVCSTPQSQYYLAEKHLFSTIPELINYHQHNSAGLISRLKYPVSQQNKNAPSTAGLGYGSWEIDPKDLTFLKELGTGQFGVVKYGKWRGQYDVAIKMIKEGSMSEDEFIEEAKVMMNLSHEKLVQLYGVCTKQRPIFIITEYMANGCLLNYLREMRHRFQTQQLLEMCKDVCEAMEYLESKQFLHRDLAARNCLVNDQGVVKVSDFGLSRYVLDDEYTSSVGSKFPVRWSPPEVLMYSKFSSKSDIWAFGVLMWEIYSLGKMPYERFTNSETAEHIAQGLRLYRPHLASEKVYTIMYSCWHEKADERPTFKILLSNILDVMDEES

For orientation: DC50 means the midpoint of the concentration-degradation curve. Low values mean degradation at low concentration, high ones degradation only at high concentration. Turning to `COc1cc(OCCCN2CCN(c3ccc(-c4cnc5[nH]nc(-c6ccc([C@@H](C)NC(=O)c7noc(C(C)(C)C)n7)c(C)c6)c5c4)cc3)CC2)ccc1NC1CCC(=O)NC1=O` (stereo partly drawn) [Example 130, 5-(tert-butyl)-N-((1R)-1-(4-(5-(4-(4-(3-(4-((2,6-dioxopiperidin-3-yl)amino)-3-methoxyphenoxy)propyl)piperazin-1-yl)phenyl)-1H-pyrazolo[3,4-b]pyridin-3-yl)-2-methylphenyl)ethyl)-1,2,4-oxadiazole-3-carboxamide], the half-maximal degradation concentration (DC50) was determined as 5.28 nM.
The compound `Cc1cc(-c2n[nH]c3ncc(-c4ccc(N5CCN(CCC6CCN(c7ccc(N8CCC(=O)NC8=O)c(Cl)c7)CC6)CC5)cc4)cc23)ccc1[C@@H](C)NC(=O)c1ccc(C(C)(C)O)cc1F` [Example 104, (R)—N-(1-(4-(5-(4-(4-(2-(1-(3-chloro-4-(2,4-dioxotetrahydropyrimidin-1(2H)-yl)phenyl)piperidin-4-yl)ethyl)piperazin-1-yl)phenyl)-1H-pyrazolo[3,4-b]pyridin-3-yl)-2-methylphenyl)ethyl)-2-fluoro-4-(2-hydroxypropan-2-yl)benzamide] returned a DC50 greater than 2000 nM.
Take `Cc1cc(-c2n[nH]c3ncc(-c4ccc(N5CCN(CC6CCN(c7ccc(N8CCC(=O)NC8=O)c(F)c7)CC6)CC5)cc4)cc23)ccc1[C@@H](C)NC(=O)c1noc(C(C)(C)C)n1` [Example 38, (R)-5-(tert-butyl)-N-(1-(4-(5-(4-(4-((1-(4-(2,4-dioxotetrahydropyrimidin-1(2H)-yl)-3-fluorophenyl)piperidin-4-yl)methyl)piperazin-1-yl)phenyl)-1H-pyrazolo[3,4-b]pyridin-3-yl)-2-methylphenyl)ethyl)-1,2,4-oxadiazole-3-carboxamide]: half-maximal degradation (DC50) was put at 3.2 nM.
The Dmax is the greatest extent of degradation seen. The low end stands for shallow degradation, the high end for deep degradation. Consider `CC(C)(C)c1noc(C(=O)NCc2ccc(-c3n[nH]c4ncc(-c5ccc(C6CCN(CCC7CCN(c8ccc(N9CCC(=O)NC9=O)c(F)c8)CC7)CC6)cc5)cc34)cc2F)n1` [Example 16, 3-(tert-butyl)-N-(4-(5-(4-(1-(2-(1-(4-(2,4-dioxotetrahydropyrimidin-1(2H)-yl)-3-fluorophenyl)piperidin-4-yl)ethyl)piperidin-4-yl)phenyl)-1H-pyrazolo[3,4-b]pyridin-3-yl)-2-fluorobenzyl)-1,2,4-oxadiazole-5-carboxamide], for which the half-maximal degradation concentration (DC50) amounted to 9.04 nM and the Dmax worked out at 96.4%.
In the case of `Cc1cc(-c2n[nH]c3ncc(-c4ccc(C5CCN(CC6CCN(c7ccc(N8CCC(=O)NC8=O)cc7)CC6)CC5)cc4)cc23)c(F)cc1CNC(=O)c1noc(C(C)(C)C)n1` [Example 222, 5-(tert-butyl)-N-(4-(5-(4-(1-((1-(4-(2,4-dioxotetrahydropyrimidin-1(2H)-yl)phenyl)piperidin-4-yl)methyl)piperidin-4-yl)phenyl)-1H-pyrazolo[3,4-b]pyridin-3-yl)-5-fluoro-2-methylbenzyl)-1,2,4-oxadiazole-3-carboxamide], the DC50 was found to be 16.1 nM. This lies in the double-digit nanomolar range.
`Cc1cc(-c2n[nH]c3ncc(-c4ccc(N5CC6CC5CN6CCc5ccc(N6CCC(=O)NC6=O)cc5)cn4)cc23)ccc1[C@@H](C)NC(=O)c1noc(C(C)(C)C)n1` (stereo partly drawn) [Example 132, 5-(tert-butyl)-N-((1R)-1-(4-(5-(5-(5-(4-(2,4-dioxotetrahydropyrimidin-1(2H)-yl)phenethyl)-2,5-diazabicyclo[2.2.1]heptan-2-yl)pyridin-2-yl)-1H-pyrazolo[3,4-b]pyridin-3-yl)-2-methylphenyl)ethyl)-1,2,4-oxadiazole-3-carboxamide] returned a DC50 greater than 2000 nM.
`C[C@@H](NC(=O)c1noc(C(C)(C)C)n1)c1ccc(-c2n[nH]c3ncc(-c4ccc(N5CCN(CC6CCN(c7ccc(N8CCC(=O)NC8=O)cc7)CC6)CC5)nc4)cc23)cc1CO` [Example 178, (R)-5-(tert-butyl)-N-(1-(4-(5-(6-(4-((1-(4-(2,4-dioxotetrahydropyrimidin-1(2H)-yl)phenyl)piperidin-4-yl)methyl)piperazin-1-yl)pyridin-3-yl)-1H-pyrazolo[3,4-b]pyridin-3-yl)-2-(hydroxymethyl)phenyl)ethyl)-1,2,4-oxadiazole-3-carboxamide] displayed a DC50 of 6.81 nM. That is a single-digit nanomolar value.
On the same count and under the same terms, next, `COc1cc(N2CCC(CN3CCN(c4ccc(-c5cnc6[nH]nc(-c7ccc(CNC(=O)c8noc(C(C)(C)C)n8)c(C)c7)c6c5)cc4)CC3)CC2)ccc1N1CCC(=O)NC1=O` [Example 50, 5-(tert-butyl)-N-(4-(5-(4-(4-((1-(4-(2,4-dioxotetrahydropyrimidin-1(2H)-yl)-3-methoxyphenyl)piperidin-4-yl)methyl)piperazin-1-yl)phenyl)-1H-pyrazolo[3,4-b]pyridin-3-yl)-2-methylbenzyl)-1,2,4-oxadiazole-3-carboxamide]: 4.65 nM.
`Cc1cc(-c2n[nH]c3ncc(-c4ccc(C5CCN(CCCOc6ccc(NC7CCC(=O)NC7=O)c(C)c6)CC5)cc4)cc23)ccc1CNC(=O)c1nc(C(C)(C)C)no1` (stereo not shown) [Example 24, 3-(tert-butyl)-N-(4-(5-(4-(1-(3-(4-((2,6-dioxopiperidin-3-yl)amino)-3-methylphenoxy)propyl)piperidin-4-yl)phenyl)-1H-pyrazolo[3,4-b]pyridin-3-yl)-2-methylbenzyl)-1,2,4-oxadiazole-5-carboxamide] yielded a DC50 of 4.62 nM and a Dmax of 97.3%.
Regarding `Cc1cc(CCN2CCN(c3ccc(-c4cnc5[nH]nc(-c6ccc([C@@H](C)NC(=O)c7noc(C(C)(C)C)n7)c(C)c6)c5c4)nc3)CC2)ncc1C1CCC(=O)NC1=O` (stereo partly drawn) [Example 147, 5-(tert-butyl)-N-((1R)-1-(4-(5-(5-(4-(2-(5-(2,6-dioxopiperidin-3-yl)-4-methylpyridin-2-yl)ethyl)piperazin-1-yl)pyridin-2-yl)-1H-pyrazolo[3,4-b]pyridin-3-yl)-2-methylphenyl)ethyl)-1,2,4-oxadiazole-3-carboxamide], the DC50 is 2.11 nM.
Still for that read-out and setting: next, `Cc1cc(-c2n[nH]c3ncc(-c4ccc(N5CCN(CCC6CCN(c7ccc([C@@H]8CCC(=O)NC8=O)cc7)CC6)CC5)cc4)cc23)ccc1CNC(=O)c1noc(C(C)(C)C)n1` [Example 92, (S)-5-(tert-butyl)-N-(4-(5-(4-(4-(2-(1-(4-(2,6-dioxopiperidin-3-yl)phenyl)piperidin-4-yl)ethyl)piperazin-1-yl)phenyl)-1H-pyrazolo[3,4-b]pyridin-3-yl)-2-methylbenzyl)-1,2,4-oxadiazole-3-carboxamide]: 7.24 nM; `Cc1cc(-c2n[nH]c3ncc(-c4ccc(N5CC6CC5CN6CCc5ccc(C6CCC(=O)NC6=O)c(C)n5)cn4)cc23)ccc1[C@@H](C)NC(=O)c1noc(C(C)(C)C)n1` (stereo partly drawn) [Example 170, 5-(tert-butyl)-N-((1R)-1-(4-(5-(5-(5-(2-(5-(2,6-dioxopiperidin-3-yl)-6-methylpyridin-2-yl)ethyl)-2,5-diazabicyclo[2.2.1]heptan-2-yl)pyridin-2-yl)-1H-pyrazolo[3,4-b]pyridin-3-yl)-2-methylphenyl)ethyl)-1,2,4-oxadiazole-3-carboxamide]: 4.77 nM.
In turn, `Cc1cc(-c2n[nH]c3ncc(-c4ccc(C5CCN(CCCOc6ccc(C7CCC(=O)NC7=O)c(C)c6)CC5)cc4)cc23)ccc1CNC(=O)c1nc(C(C)(C)C)no1` (stereo not shown) [Example 27, 3-(tert-butyl)-N-(4-(5-(4-(1-(3-(4-(2,6-dioxopiperidin-3-yl)-3-methylphenoxy)propyl)piperidin-4-yl)phenyl)-1H-pyrazolo[3,4-b]pyridin-3-yl)-2-methylbenzyl)-1,2,4-oxadiazole-5-carboxamide] had a half-maximal degradation concentration (DC50) of 9.25 nM and a Dmax of 95.3%.
The compound `Cc1cc(-c2n[nH]c3ncc(-c4ccc(N5CCN(CCn6cc(C7CCC(=O)NC7=O)cn6)CC5)cc4)cc23)ccc1[C@@H](C)NC(=O)c1noc(C(C)(C)C)n1` (stereo partly drawn) [Example 186, 5-(tert-butyl)-N-((1R)-1-(4-(5-(4-(4-(2-(4-(2,6-dioxopiperidin-3-yl)-1H-pyrazol-1-yl)ethyl)piperazin-1-yl)phenyl)-1H-pyrazolo[3,4-b]pyridin-3-yl)-2-methylphenyl)ethyl)-1,2,4-oxadiazole-3-carboxamide] had a DC50 of 1.61 nM.
Consider `Cc1cc(-c2n[nH]c3ncc(-c4ccc(N5CCN(CCc6ccc7c(c6)C[C@]6(CC(=O)NC6=O)C7)CC5)cc4)cc23)ccc1[C@@H](C)NC(=O)c1nc(C(C)(C)C)no1` [Example 206, 3-(tert-butyl)-N—((R)-1-(4-(5-(4-(4-(2-((S)-2′,5′-dioxo-1,3-dihydrospiro[indene-2,3′-pyrrolidin]-5-yl)ethyl)piperazin-1-yl)phenyl)-1H-pyrazolo[3,4-b]pyridin-3-yl)-2-methylphenyl)ethyl)-1,2,4-oxadiazole-5-carboxamide], for which the DC50 is greater than 2000 nM.
With `Cc1cc(-c2n[nH]c3ncc(-c4ccc(N5CC6CC5CN6CCc5ccc(C6CCC(=O)NC6=O)cc5)cn4)cc23)ccc1[C@@H](C)NC(=O)c1noc(C(C)(C)C)n1` (stereo partly drawn) [Example 133, 5-(tert-butyl)-N-((1R)-1-(4-(5-(5-(5-(4-(2,6-dioxopiperidin-3-yl)phenethyl)-2,5-diazabicyclo[2.2.1]heptan-2-yl)pyridin-2-yl)-1H-pyrazolo[3,4-b]pyridin-3-yl)-2-methylphenyl)ethyl)-1,2,4-oxadiazole-3-carboxamide], the DC50 is 1.96 nM.
